{"source": "ChEMBL document CHEMBL1201862", "about": "“PubChem BioAssay data set” (2004)", "key": {"Mucolipin-3 [1]": {"target": "T1, Mucolipin-3 (Homo sapiens, UniProt Q8TDD5)", "T1 sequence (Q8TDD5 whole entry)": "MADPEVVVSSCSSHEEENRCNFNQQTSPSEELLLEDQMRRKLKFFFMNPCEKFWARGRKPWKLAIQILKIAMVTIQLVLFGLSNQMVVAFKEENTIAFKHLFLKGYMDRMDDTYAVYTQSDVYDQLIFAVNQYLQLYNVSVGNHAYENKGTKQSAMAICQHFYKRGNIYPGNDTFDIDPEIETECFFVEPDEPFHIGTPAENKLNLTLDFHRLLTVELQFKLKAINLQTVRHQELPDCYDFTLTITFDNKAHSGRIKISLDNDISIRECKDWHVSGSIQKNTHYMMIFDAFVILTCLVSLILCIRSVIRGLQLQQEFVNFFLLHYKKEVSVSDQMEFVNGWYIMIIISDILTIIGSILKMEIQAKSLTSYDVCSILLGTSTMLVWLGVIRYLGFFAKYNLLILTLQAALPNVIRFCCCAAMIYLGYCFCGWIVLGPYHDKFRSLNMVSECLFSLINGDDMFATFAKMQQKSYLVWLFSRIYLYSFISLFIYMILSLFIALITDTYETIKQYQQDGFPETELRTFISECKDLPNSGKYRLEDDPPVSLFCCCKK", "experiment": "human mucolipin-3 activators, concentration-response – cell-based, calcium fluorescence, dose response (AID 2510)", "format": "functional"}, "Mucolipin-3 [2]": {"target": "T1, Mucolipin-3", "experiment": "Dose response cell-based high-throughput screening assay for agonists of the transient receptor potential channel ML3 (TRPML3). [Related pubchem assays: 1526, 1424, 1448 ]", "format": "functional"}, "Ion channel NompC [3]": {"target": "T2, Ion channel NompC (Danio rerio, UniProt Q7T1G6)", "T2 sequence (Q7T1G6 whole entry)": "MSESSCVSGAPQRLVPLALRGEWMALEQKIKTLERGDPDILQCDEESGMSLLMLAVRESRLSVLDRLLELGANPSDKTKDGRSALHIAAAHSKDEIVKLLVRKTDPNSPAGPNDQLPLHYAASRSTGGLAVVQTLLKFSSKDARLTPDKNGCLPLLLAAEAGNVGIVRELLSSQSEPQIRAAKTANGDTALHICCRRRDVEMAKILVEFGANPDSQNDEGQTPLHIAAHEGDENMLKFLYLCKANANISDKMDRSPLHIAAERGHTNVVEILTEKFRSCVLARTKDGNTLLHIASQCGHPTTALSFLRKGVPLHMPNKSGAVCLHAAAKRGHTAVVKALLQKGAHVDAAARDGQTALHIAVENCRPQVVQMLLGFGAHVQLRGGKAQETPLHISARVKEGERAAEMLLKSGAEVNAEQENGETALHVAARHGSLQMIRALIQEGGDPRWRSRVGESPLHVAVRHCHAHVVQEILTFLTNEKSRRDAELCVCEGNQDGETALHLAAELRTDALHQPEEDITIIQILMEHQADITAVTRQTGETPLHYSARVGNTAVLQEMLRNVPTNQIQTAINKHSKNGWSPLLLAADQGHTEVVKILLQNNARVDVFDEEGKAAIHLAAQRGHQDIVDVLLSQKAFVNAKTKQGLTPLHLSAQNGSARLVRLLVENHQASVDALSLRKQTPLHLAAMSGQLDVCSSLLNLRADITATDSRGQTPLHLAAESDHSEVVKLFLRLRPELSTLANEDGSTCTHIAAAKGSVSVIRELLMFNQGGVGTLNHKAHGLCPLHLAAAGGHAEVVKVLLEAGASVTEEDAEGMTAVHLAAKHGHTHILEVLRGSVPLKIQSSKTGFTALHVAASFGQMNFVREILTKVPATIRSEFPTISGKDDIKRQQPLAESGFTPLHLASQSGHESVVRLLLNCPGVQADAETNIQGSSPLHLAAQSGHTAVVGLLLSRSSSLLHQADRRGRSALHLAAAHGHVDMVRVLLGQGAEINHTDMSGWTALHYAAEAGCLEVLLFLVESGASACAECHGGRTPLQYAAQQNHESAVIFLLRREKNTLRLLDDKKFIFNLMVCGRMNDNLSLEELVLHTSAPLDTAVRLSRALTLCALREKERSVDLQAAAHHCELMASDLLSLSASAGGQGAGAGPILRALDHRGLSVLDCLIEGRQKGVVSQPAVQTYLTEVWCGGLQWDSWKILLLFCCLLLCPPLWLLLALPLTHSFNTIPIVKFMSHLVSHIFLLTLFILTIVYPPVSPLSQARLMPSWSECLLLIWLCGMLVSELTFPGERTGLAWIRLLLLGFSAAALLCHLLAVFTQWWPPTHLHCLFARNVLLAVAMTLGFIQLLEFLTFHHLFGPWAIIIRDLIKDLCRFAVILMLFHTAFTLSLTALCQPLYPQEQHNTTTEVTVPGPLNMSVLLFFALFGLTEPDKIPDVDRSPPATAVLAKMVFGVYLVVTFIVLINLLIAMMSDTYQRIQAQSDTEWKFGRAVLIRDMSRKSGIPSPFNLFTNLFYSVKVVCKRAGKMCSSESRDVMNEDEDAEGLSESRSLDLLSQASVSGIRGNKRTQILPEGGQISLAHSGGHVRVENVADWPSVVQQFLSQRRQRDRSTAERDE", "experiment": "Late stage counterscreen for the probe development effort to identify selective agonists of the Transient Receptor Potential Channels 3 (TRPML3): fluorescence-based cell-based dose response assay for TRPN1 agonists.", "format": "functional"}, "Ion channel NompC [4]": {"target": "T2, Ion channel NompC", "experiment": "Fluorescence counterscreen assay for TRPML3 agonists: dose response cell-based high-throughput screening assay to identify agonists of the transient receptor potential channel N1 (TRPN1). [Related pubchem assays: 1526, 1424, 1448 ]", "format": "functional"}, "[5]": {"target": "T3, Corticotropin-releasing factor receptor 2/Corticotropin-releasing factor-binding protein (Homo sapiens, UniProt P24387+Q13324)", "T3 sequence (Q13324 whole entry)": "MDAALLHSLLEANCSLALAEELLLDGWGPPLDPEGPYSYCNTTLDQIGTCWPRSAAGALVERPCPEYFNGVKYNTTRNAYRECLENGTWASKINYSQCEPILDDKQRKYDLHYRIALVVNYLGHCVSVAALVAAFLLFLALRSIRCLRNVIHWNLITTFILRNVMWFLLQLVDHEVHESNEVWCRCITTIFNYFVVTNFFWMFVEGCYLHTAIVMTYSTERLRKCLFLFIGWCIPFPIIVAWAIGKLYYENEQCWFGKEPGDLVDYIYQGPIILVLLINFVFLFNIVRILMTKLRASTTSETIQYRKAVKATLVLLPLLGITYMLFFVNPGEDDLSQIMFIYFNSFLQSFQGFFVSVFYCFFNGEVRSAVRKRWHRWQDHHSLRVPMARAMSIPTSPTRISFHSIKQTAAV", "T3 sequence (P24387 whole entry)": "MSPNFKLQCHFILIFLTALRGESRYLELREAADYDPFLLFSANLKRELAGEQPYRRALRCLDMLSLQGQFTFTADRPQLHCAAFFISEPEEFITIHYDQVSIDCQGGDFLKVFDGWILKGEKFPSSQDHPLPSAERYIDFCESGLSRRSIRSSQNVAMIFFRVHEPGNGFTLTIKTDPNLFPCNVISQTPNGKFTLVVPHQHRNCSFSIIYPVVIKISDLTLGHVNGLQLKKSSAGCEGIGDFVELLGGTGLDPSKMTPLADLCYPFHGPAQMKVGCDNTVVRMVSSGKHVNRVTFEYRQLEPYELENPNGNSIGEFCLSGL", "experiment": "activators of CRF receptor 2 with binding protein – uHTS hits, confirmation (AID 602473)", "format": "functional", "settings": "read-out: EC50_Mean"}, "[6]": {"target": "Luciferin 4-monooxygenase (Photinus pyralis, UniProt P08659)", "sequence (P08659 whole entry)": "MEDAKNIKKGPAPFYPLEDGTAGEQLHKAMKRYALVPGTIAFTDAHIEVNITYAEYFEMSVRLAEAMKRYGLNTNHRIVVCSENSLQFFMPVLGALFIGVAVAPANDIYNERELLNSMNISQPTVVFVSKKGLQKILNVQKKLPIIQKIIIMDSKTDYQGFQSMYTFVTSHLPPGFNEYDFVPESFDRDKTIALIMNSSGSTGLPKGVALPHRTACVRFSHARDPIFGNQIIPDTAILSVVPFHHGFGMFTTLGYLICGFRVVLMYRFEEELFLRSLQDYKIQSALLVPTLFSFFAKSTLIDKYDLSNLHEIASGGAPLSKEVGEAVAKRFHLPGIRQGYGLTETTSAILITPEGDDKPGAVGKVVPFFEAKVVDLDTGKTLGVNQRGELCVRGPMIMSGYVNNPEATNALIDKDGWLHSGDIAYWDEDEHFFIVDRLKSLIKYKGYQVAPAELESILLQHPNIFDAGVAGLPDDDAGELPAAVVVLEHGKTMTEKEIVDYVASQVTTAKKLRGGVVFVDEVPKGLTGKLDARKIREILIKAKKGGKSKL", "experiment": "inhibition of purified Photinus pyralis luciferase – biochemical, luminescence, dose response (AID 1891)"}, "[7]": {"experiment": "Luminescence Cell-Based Dose Confirmation HTS to Identify Inhibitors of Platelet Dense Granule Release. [Related pubchem assays: 1663 (Primary HTS), 1678 (Summary of Project)]", "format": "functional"}, "[8]": {"experiment": "Fluorescence Cell-Based Dose Response to Identify Inhibitors of Thrombin Receptor-Activating Peptide SFLLRN-Mediated P-Selectin Induction on Platelets. [Related pubchem assays: 1663 (Primary HTS), 1889 (retest at dose ), 1891 (counterscreen), 1678 (Project Summary)]", "format": "functional"}, "[9]": {"target": "T4, Sphingosine 1-phosphate receptor 4 (Homo sapiens, UniProt O95977)", "T4 sequence (O95977 whole entry)": "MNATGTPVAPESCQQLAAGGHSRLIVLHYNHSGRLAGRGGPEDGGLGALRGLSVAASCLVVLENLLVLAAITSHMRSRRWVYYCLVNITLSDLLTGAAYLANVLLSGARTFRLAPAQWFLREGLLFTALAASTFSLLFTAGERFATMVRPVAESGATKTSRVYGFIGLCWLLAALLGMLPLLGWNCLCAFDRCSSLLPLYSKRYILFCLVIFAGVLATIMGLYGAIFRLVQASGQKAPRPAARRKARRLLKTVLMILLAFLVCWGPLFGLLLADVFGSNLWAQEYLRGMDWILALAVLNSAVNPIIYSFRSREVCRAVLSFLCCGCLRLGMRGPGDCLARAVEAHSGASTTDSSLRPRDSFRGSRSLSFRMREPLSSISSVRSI", "experiment": "Fluorescence dose response cell-based high throughput screening assay for antagonists of the Sphingosine 1-Phosphate Receptor 4 (S1P4). [Related pubchem assays: 1524 (Confirmation in triplicates.), 1510 (Primary screen.)]", "format": "functional"}, "[10]": {"target": "Sphingosine 1-phosphate receptor 1 (Homo sapiens, UniProt P21453)", "sequence (P21453 whole entry)": "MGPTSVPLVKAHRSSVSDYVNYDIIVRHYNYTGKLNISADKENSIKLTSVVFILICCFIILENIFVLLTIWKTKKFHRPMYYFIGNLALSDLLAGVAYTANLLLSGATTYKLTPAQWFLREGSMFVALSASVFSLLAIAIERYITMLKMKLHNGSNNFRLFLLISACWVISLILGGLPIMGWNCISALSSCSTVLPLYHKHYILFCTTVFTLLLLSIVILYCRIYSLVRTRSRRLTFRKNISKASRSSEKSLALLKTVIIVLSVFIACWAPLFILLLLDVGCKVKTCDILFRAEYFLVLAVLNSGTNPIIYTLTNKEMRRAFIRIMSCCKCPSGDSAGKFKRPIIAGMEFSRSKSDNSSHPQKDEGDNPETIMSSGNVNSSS", "format": "functional"}, "CHO": {"test_system": "CHO", "experiment": "CHO cell viability loss, potency – luminescence, cytotoxicity control for TLR9-MyD88 binding inhibitor project, dose response (AID 588339);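 also: CHO cells stably coexpressing TLR9 and MyD88 fusions from primary screen; compound exposure lasted 48 hours before viability readout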", "format": "functional, cell-based, hamster", "settings": "Cricetulus griseus"}, "[11]": {"target": "T5, Replicative DNA helicase DnaB (Mycobacterium tuberculosis, UniProt P9WMR3)", "T5 sequence (P9WMR3 whole entry)": "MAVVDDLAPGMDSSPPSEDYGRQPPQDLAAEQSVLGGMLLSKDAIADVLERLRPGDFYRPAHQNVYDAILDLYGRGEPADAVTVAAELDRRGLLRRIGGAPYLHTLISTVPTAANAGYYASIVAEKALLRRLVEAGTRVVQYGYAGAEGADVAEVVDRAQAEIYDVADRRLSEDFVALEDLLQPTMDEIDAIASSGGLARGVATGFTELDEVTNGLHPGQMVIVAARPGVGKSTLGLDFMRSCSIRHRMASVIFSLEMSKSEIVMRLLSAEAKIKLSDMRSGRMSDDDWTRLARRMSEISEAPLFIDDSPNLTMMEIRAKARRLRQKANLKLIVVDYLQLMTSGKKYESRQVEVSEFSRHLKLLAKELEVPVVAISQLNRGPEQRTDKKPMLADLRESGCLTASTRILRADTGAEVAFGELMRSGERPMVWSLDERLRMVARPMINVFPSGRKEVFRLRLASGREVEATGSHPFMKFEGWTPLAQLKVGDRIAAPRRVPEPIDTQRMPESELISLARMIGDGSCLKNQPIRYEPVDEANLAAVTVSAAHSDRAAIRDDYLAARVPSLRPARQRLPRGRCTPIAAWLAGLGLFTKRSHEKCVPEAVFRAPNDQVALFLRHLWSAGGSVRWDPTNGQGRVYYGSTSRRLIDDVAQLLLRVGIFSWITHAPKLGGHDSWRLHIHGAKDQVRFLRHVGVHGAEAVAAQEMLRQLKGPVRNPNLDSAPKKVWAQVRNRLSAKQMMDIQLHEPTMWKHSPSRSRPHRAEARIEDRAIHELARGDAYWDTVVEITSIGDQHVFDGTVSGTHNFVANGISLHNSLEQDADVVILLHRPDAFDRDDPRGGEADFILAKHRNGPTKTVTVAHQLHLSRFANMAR", "experiment": "DnaB intein splicing inhibitors, dose response, biochemical, cell-free fluorescence (AID 449749)", "format": "functional"}, "Protein RecA": {"target": "T6, Protein RecA (Mycobacterium tuberculosis, UniProt P9WHJ3)", "T6 sequence (P9WHJ3 whole entry)": "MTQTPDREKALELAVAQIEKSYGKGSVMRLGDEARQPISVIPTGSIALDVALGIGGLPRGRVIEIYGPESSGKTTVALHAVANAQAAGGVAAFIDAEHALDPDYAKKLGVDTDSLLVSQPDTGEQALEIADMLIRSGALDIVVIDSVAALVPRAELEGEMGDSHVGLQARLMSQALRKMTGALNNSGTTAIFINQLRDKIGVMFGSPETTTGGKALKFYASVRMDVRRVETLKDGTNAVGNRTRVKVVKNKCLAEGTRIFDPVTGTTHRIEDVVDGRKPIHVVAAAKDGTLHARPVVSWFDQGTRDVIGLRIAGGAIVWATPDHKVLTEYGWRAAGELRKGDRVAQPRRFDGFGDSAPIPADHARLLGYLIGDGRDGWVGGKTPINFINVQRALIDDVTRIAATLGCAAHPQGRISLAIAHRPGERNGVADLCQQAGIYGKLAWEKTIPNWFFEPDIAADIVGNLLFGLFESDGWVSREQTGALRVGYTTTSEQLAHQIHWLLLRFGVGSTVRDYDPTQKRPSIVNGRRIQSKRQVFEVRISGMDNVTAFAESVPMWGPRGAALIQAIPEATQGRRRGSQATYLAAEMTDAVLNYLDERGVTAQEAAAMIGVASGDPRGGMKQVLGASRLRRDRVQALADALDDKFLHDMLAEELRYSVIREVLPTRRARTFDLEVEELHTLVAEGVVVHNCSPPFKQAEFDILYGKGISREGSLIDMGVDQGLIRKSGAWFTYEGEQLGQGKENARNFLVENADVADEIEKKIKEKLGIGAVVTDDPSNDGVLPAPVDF", "experiment": "Fluorescence Cell-Free Homogeneous Dose Retest to Identify Inhibitors of RecA-Intein Splicing Activity. [Related pubchem assays (depositor defined):AID2097, AID2223, AID489010, AID492950]", "format": "functional"}, "Beta Lactamase": {"target": "Beta Lactamase (Pseudomonas aeruginosa, UniProt Q932Y6)", "sequence (Q932Y6 whole entry)": "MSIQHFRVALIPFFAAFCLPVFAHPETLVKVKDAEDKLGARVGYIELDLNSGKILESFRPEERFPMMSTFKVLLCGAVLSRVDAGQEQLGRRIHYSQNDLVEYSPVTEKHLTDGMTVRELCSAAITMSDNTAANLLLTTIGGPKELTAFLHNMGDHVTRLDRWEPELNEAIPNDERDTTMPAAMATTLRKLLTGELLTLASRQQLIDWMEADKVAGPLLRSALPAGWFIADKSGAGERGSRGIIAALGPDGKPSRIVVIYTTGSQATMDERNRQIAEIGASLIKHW", "experiment": "BLA reporter interference, concentration series – BLA reporter cells, FRET fluorescence, artefact control for TLR9-MyD88 binding inhibitor project, dose response (AID 588341)", "format": "cell-based"}, "A-375 [12]": {"test_system": "A-375", "experiment": "MITF: Counter assay: A375 proliferation Measured in Cell-Based System Using Plate Reader - 2084-03_Inhibitor_Dose_DryPowder_Activity. [Related pubchem assays (depositor defined):AID488944]", "format": "functional", "settings": "Homo sapiens"}, "A-375 [13]": {"test_system": "A-375", "experiment": "proliferation inhibition in MITF-low A375 cells – cell-based, cherry-pick samples, set 2, counter-screen for MITF modulator project, dose response (AID 540335)", "format": "functional", "settings": "Homo sapiens"}, "Paired box protein Pax-8": {"target": "Paired box protein Pax-8 (Homo sapiens, UniProt Q06710)", "sequence (Q06710 whole entry)": "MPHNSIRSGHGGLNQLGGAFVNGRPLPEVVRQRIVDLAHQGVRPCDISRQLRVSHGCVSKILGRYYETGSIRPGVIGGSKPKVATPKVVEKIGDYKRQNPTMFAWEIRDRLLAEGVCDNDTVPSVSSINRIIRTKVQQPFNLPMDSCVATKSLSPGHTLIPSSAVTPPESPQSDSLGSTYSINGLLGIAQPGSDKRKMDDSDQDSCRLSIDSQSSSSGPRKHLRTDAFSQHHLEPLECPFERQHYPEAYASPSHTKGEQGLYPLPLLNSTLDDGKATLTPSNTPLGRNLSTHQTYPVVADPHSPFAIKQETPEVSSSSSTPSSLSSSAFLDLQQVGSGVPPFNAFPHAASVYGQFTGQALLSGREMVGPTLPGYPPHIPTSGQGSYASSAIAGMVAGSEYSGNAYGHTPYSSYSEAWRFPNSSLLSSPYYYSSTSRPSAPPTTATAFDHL", "experiment": "PAX8 transcriptional activity inhibition in RMG-I – RMG-I cells, luciferase, cherry-pick, dose response (AID 687027);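 also: luciferase reporter driven by Pax8 target thyroperoxidase promoter measured by SteadyGlo luminescence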", "format": "functional, cell-based"}, "[14]": {"target": "Muscarinic acetylcholine receptor M1 (Rattus norvegicus, UniProt P08482)", "sequence (P08482 whole entry)": "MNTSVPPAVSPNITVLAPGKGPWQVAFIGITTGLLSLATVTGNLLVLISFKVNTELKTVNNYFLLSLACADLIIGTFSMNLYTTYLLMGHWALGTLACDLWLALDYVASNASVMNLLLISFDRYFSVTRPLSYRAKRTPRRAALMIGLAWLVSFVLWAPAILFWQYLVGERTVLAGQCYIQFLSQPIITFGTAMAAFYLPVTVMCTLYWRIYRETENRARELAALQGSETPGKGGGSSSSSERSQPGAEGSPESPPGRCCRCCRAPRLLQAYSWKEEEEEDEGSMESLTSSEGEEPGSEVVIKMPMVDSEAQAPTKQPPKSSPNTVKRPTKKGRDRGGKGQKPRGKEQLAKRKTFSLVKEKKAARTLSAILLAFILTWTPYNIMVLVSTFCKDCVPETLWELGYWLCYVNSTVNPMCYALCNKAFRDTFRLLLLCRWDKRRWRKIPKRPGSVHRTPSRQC", "experiment": "concentration-dependent potentiation of ACh at M1 – cell-based, calcium mobilization, CHO-K1, ACh EC20, dose response (AID 2425)", "format": "functional"}}, "note": "The source made the active and inactive calls."}
{"smiles": "CC1CCN(S(=O)(=O)c2ccc(C(C)C)cc2)CC1", "values": [{"measurement": "EC50", "setting": "Mucolipin-3 [1]", "value": "1.12 µM (active)"}, {"measurement": "EC50", "setting": "Mucolipin-3 [2]", "value": "1.33 µM (active)"}, {"measurement": "EC50", "setting": "Ion channel NompC [3]", "value": "> 29.9 µM (not active)"}, {"measurement": "EC50", "setting": "Ion channel NompC [4]", "value": "> 29.9 µM (not active)"}, {"measurement": "EC50", "setting": "[5]", "value": "> 53 µM (inactive)"}]}
{"smiles": "CS(=O)(=O)c1ncc(Cl)c(C(=O)Nc2ccc3ccccc3c2)n1", "values": [{"measurement": "EC50", "setting": "[6]", "value": "> 112 µM (not active)"}, {"measurement": "EC50", "setting": "[7]", "value": "3.6 µM (active)"}, {"measurement": "EC50", "setting": "[8]", "value": "< 30 µM (active)"}, {"measurement": "IC50", "setting": "[9]", "value": "2.07 µM (active)"}, {"measurement": "IC50", "setting": "[10]", "value": "> 5.53 µM (not active)"}, {"measurement": "IC50", "setting": "CHO", "value": "1.95 µM (active)"}, {"measurement": "AC50", "setting": "[11]", "value": "2.49 µM (active)"}, {"measurement": "EC50", "setting": "Protein RecA", "value": "4.84 µM (active)"}, {"measurement": "IC50", "setting": "Beta Lactamase", "value": "7.13 µM (active)"}, {"measurement": "AC50", "setting": "A-375 [12]", "value": "> 35 µM (active)"}, {"measurement": "AC50", "setting": "A-375 [13]", "value": "> 35 µM (active)"}, {"measurement": "AC50", "setting": "Paired box protein Pax-8", "value": "7.81 µM (active)"}]}
{"smiles": "Cn1cc(-c2cc(F)c(CN3C(=O)C(=O)c4ccccc43)c(F)c2)cn1", "values": [{"measurement": "EC50", "setting": "[14]", "value": "0.885 µM (active)"}]}
